# Assay results: ChEMBL document CHEMBL5131411, “Evaluation of amentoflavone metabolites on PARP-1 inhibition and the potentiation on anti-proliferative effects of carboplatin in A549 cells” (Bioorg Med Chem Lett, 2022)
# pIC50: −log10 of the molar value. The source made the active and inactive calls. The calls are words filed in the database; no cut-off is given here.
# Key:
# [1] = biological target: Poly [ADP-ribose] polymerase 1 (Homo sapiens, UniProt P09874); assay: Inhibition of PARP1 (unknown origin); conditions: for pIC50: read-out: IC50
# Poly [ADP-ribose] polymerase 1, sequence (P09874 whole entry): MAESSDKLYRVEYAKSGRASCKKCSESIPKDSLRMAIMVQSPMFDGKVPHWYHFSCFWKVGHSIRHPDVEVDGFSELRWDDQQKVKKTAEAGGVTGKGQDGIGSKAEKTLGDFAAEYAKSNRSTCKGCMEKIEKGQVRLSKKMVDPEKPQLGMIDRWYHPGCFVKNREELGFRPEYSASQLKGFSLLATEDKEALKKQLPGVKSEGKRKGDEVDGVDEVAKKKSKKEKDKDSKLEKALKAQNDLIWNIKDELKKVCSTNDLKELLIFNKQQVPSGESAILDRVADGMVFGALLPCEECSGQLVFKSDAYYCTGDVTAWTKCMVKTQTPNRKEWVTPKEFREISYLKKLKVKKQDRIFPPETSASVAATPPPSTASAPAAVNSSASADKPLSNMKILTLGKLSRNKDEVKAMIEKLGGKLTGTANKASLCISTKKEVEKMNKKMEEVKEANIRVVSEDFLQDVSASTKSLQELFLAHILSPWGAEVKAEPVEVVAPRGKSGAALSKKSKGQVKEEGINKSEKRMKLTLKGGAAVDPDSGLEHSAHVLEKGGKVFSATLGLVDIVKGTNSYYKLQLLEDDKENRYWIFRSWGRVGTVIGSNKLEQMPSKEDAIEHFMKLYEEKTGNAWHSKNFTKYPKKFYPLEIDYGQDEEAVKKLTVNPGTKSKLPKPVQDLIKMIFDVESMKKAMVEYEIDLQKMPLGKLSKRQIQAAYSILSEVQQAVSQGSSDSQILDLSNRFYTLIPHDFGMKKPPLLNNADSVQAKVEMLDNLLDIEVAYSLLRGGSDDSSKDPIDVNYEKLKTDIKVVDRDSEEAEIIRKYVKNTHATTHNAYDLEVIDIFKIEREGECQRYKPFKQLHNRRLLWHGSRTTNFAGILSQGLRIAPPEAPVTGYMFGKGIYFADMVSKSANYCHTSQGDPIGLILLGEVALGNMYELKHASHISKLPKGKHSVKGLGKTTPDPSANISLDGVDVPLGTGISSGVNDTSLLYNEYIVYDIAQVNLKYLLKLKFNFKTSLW
# A549 [2] = assay: Potentiation of carboplatin induced antiproliferative activity against human A549 cells assessed as reduction in cell viability at 0.1 to 10 uM by MTT assay; type: functional, cell-based; conditions: dose 0.1-10 µM
# A549 [3] = assay: Potentiation of carboplatin induced antiproliferative activity against human A549 cells assessed as increase in apoptotic cells at 0.1 to 10 uM by Hoechst staining based assay; type: functional, cell-based; conditions: dose 0.1-10 µM
# A549 [4] = assay: Potentiation of carboplatin induced antiproliferative activity against human A549 cells assessed as increase in apoptotic cells at 0.1 to 10 uM by Annexin V-PI double staining based flow cytometric analysis; type: functional, cell-based; conditions: dose 0.1-10 µM
# A549 [5] = assay: Potentiation of carboplatin induced antiproliferative activity against human A549 cells assessed as reduction in cell viability at 10 uM by MTT assay; type: functional, cell-based
# A549 [6] = assay: Potentiation of carboplatin induced antiproliferative activity against human A549 cells assessed as increase in apoptotic cells at 10 uM by Hoechst staining based assay; type: functional, cell-based
# A549 [7] = assay: Potentiation of carboplatin induced antiproliferative activity against human A549 cells assessed as increase in apoptotic cells at 10 uM by Annexin V-PI double staining based flow cytometric analysis; type: functional, cell-based
Compound,pIC50 [1],IC50 [1] [µg/mL],Activity (A549 [2]),Activity (A549 [3]),Activity (A549 [4]),Activity (A549 [5]),Activity (A549 [6]),Activity (A549 [7])
O=c1c(O)c(-c2ccc(O)c(-c3c(O)cc(O)c4c(=O)cc(-c5ccc(OS(=O)(=O)O)cc5)oc34)c2)oc2cc(OS(=O)(=O)O)cc(O)c12,6.62,–,–,–,–,–,–,–
O=c1cc(-c2ccc(O)c(-c3c(O)cc(O)c4c(=O)cc(-c5ccc(OS(=O)(=O)O)cc5)oc34)c2)oc2cc(O)cc(O)c12,6.77,0.0804,Active,Active,Active,–,–,–
O=c1c(O)c(-c2ccc(O)c(-c3c(O)cc(O)c4c(=O)cc(-c5ccc(O)cc5)oc34)c2)oc2cc(OS(=O)(=O)O)cc(O)c12,6.29,0.1158,–,–,–,–,–,–
O=c1cc(-c2ccc(O)c(-c3c(O)cc(O)c4c(=O)cc(-c5ccc(O)cc5)oc34)c2)oc2cc(O)cc(O)c12 [AMENTOFLAVONE],6.92,0.1398,–,–,–,Active,Active,Active
